We go through one molecule from patent US5494895A, “Scorpion peptide margatoxin with immunosuppressant activity” (Merck & Co., Inc., priority 1993, dated 1996).

Peptide text beside a SMILES is read from it.

The target of the assay is T1, Kv 1 (rat Kv 1.5) (Rattus norvegicus, UniProt P19024).
T1 construct: expressed in transfected cells; host or cells: Xenopus oocytes injected with RNA transcribed in vitro from the cDNA clone
The assay can be described thus: Two-electrode voltage clamp of Xenopus oocytes expressing Kv 1 (Kv 1.5). The format is cell-based. The note with it: 200 nM MgTX. The procedure: Ionic currents were also recorded from Xenopus oocytes that had been injected with RNA transcribed in vitro from one or another of the following K^+ channel cDNA clones. Kv 1 (rat Kv 1.5), rat or human Kv 3 (rat Kv 1.3; human Kv 1.3), Kv 4 (rat Kv 3.1 ), rat ISK, Kv 2 (rat Kv 1.6) or Drosophila Shaker-H4. The names of the clones are listed as originally published, with the appropriate parenthetical designation according to the unified gene nomenclature proposed by Chandy. Shaker-H4 is a splice variant from the original Drosophila Shaker K^+ channel gene. Kv 1.3 is the ChTX-sensitive delayed rectifier current found in rat and human T lymphocytes (data from rat and human clones were indistinguishable and were combined) and it is a member of the Shaker family. Kv 1.5 is a channel cloned from rat (Swanson et al., Neuron, 4, 929, 1990) and is another member of the Shaker family. The Kv 1.5 transcript has been detected in pancreatic β cells as described in Philipson, et al., Proc. Natl. Acad. Sci. U.S.A. 88, 53, 1991. […] The ISK transcript has been detected in lymphocytes (Attali et al., J. Biol. Chem,. 267, 8650, 1992), but no evidence of the IKs current has been found in those cells.
Methods for oocyte isolation and micro-injection were previously described in Goldin, Meth. […] Currents expressed in oocytes were measured using a DAGAN model CA-1 two-electrode voltage clamp. […]

T1 sequence (P19024 whole entry): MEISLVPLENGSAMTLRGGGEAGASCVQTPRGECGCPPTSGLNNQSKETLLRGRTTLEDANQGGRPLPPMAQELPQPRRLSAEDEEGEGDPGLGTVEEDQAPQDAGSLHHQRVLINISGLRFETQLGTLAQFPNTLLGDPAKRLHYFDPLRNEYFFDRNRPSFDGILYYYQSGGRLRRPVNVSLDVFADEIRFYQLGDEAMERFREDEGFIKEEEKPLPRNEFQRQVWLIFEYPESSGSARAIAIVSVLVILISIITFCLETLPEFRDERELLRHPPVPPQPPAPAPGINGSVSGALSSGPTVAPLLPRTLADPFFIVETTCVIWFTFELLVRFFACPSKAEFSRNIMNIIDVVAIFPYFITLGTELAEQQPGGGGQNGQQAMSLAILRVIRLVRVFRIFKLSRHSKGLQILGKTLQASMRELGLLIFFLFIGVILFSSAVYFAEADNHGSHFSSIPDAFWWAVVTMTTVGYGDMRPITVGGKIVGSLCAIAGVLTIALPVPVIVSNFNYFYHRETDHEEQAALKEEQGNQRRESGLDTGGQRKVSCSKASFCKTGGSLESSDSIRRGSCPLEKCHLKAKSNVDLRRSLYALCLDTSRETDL

As to `CC[C@H](C)[C@H](NC(=O)[C@@H](N)[C@@H](C)O)C(=O)N[C@H](C(=O)N[C@@H](CC(N)=O)C(=O)N[C@H](C(=O)N[C@@H](CCCCN)C(=O)N[C@H]1CSSC[C@@H]2NC(=O)[C@H](CCCCN)NC(=O)[C@H](C)NC(=O)CNC(=O)[C@H](C)NC(=O)[C@H](CO)NC(=O)[C@H](CCC(N)=O)NC(=O)CNC(=O)[C@H](Cc3ccccc3)NC(=O)[C@H](CCC(N)=O)NC(=O)[C@H](C)NC(=O)[C@H](CCCCN)NC(=O)[C@@H]3CSSC[C@@H](C(=O)N[C@@H](Cc4ccc(O)cc4)C(=O)N4CCC[C@H]4C(=O)N[C@@H](Cc4c[nH]cn4)C(=O)O)NC(=O)[C@H](CCCCN)NC(=O)[C@H](CSSC[C@H](NC(=O)[C@H](CCC(N)=O)NC(=O)[C@H](CCCCN)NC(=O)[C@@H]4CCCN4C(=O)[C@H](CO)NC(=O)[C@H]([C@@H](C)O)NC1=O)C(=O)N[C@@H](CC(C)C)C(=O)N1CCC[C@H]1C(=O)N1CCC[C@H]1C(=O)N3)NC(=O)[C@H](CCCCN)NC(=O)CNC(=O)[C@H](CC(N)=O)NC(=O)[C@H](CCSC)NC2=O)C(C)C)[C@@H](C)CC` [MgTX, Margatoxin] (HELM PEPTIDE1{T.I.I.N.V.K.C.T.S.P.K.Q.C.L.P.P.C.K.A.Q.F.G.Q.S.A.G.A.K.C.M.N.G.K.C.K.C.Y.P.H}$PEPTIDE1,PEPTIDE1,7:R3-29:R3|PEPTIDE1,PEPTIDE1,13:R3-34:R3|PEPTIDE1,PEPTIDE1,17:R3-36:R3$$$V2.0; N-terminus and C-terminus assumed; bridges inferred), the “sensitivity of cloned channel Kv 5 to block” value was “completely insensitive”.
